Legend:
[1] = biological target: T1, Dcp1/2 decapping enzyme (SpDcp1/2) (Schizosaccharomyces pombe, UniProt O13828); test: Susceptibility of short capped RNAs to degradation with the Dcp1/2 enzyme; assay type: biochemical; conditions: RNA capped with the analog; 3.5 nM Dcp1/2, time point 15 min, normalized to 0′ time
T1 construct: made in house
T1 sequence (O13828 1-243 limits assumed): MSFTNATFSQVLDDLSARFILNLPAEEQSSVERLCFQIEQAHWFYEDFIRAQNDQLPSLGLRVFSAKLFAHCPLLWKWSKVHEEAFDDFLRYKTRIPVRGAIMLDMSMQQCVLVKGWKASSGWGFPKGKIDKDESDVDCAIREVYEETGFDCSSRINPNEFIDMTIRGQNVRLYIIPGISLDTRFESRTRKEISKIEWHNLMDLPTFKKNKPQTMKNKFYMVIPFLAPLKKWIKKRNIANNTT
T1 sequence (Q9P805 1-127 partner): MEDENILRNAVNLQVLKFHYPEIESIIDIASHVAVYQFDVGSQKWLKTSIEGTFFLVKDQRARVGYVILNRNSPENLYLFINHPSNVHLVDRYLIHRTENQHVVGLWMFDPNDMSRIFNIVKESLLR
From the text: Test 4. Susceptibility Study of Short RNA Molecules Comprising Cap Analogs at the 5′ End to Degradation with the Dcp1/2 Enzyme.
The aim of this study was to check whether incorporation of selected 5′-phosphothioate cap analogs to 5′ end of RNA could influence susceptibility of thus prepared transcripts towards Dcp1/2 decapping enzyme activity. Schizosaccharomyces pombe recombinant protein in the form of a heterodimer Dcp1/2 was obtained as described previously (Floor, Jones et al. 2010). The trancripts utilized in this assay were obtained by transcription in vitro using RNA SP6 polymerase (New England BioLabs). Annealed oligonucleotides: […] (SEQ ID NO.: 1), and […] (SEQ ID NO: 2) were used as a template in in vitro transcription, the oligonucleotides comprising the promoter sequence for SP6 polymerase (ATTTAGGTGACACTATAGA (SEQ ID NO: 3)) allow to obtain 35 nt long RNAs having a sequence of […] (SEQ ID NO: 4), however 5′ end capped RNAs are 36 nt long. Typical in vitro transcription reaction was performed in volume 20 μl and was incubated in 40° C. for 2 hours and contained the following: 1U SP6 polymerase, 1 U RiboLock RNase Inhibitor (ThermoFisher Scientific), 0.5 mM ATP/CTP/UTP, 0.125 mM GTP, 1.25 mM dinucleotide cap analog and 0.1 μM template. Following 2 hours incubation, 1U DNase I (Ambion) was added to the reaction mixture and incubation was continued for 30 min in 37° C., after that EDTA was added to 25 mM final concentration. Obtained RNAs were purified using RNA Clean & Concentrator-25 (Zymo Research). Then the quality of the synthesized RNA was determined on a denaturating 15% polyacrylamide gel. The concentration of the RNA was in turn evaluated spectrophotometrically. […] RNA having a cap at the 5′ end was 26 nt long. The reaction of cleaving the 3′ ends was as follows: 1 μM of RNA was incubated with 1 μM of DNazyme 10-23 in a mixture containing 50 mM MgCl2 and 50 mM Tris-HCl pH 8.0 for 1 hour in 37° C. (Coleman et al., 2004).
For enzymatic tests 20 ng of each RNA was used, which were incubated with 3.5 nM Dcp1/2 enzyme in buffer containing 50 mM Tris-HCl pH 8.0, 50 mM NH4Cl, 0.01% NP-40, 1 mM DTT, and 5 mM MgCl2. Reactions were performed at 37° C. in the final volume of 25 μl. The reaction was stopped after 0, 5, 15 and 30 min by adding an equal amount of a mixture of 5 M urea, 44% formamide, 20 mM EDTA, 0.03% bromophenol blue, 0.03% xylene cyanol. Reaction products were resolved on denaturing 15% polyacrylamide gels, after the electrophoretic separation was completed, the gel was stained with SYBR Gold (Invitrogen) and visualized using a Storm 860 PhosphorImager (GE Healthcare). Quantification of the obtained results was performed with ImageQuant software (Molecular Dynamics). Representative results of this assay were presented on FIG. 8, FIG. 9 and also in Table 6.

[2] = system: rabbit reticulocyte lysate; test: Translational efficiency of capped Renilla luciferase mRNAs in rabbit reticulocyte lysate; assay type: biochemical; conditions: Renilla luciferase mRNA capped with the analog; normalized to m^7GpppG-capped mRNA; biological triplicates
Protocol: Test 5. Study on the Effect of the Presence of Novel Cap Analogs on Translational Efficiency of mRNAs in Rabbit Reticulocyte Lysate.
The aim of this study was to check the effect of introducing novel cap analogs at the 5′ end of mRNAs on translation efficiency. For this purpose series of Renilla luciferase encoding mRNAs, and differing in the cap structure at the 5′ end were prepared. The transcripts used for this test were obtained by in vitro transcription reaction using SP6 RNA polymerase. As the template for the in vitro transcription a PCR product was used, prepared using primers […] (SEQ ID NO: 6) and […] (SEQ ID NO: 7) and the hRLuc-pRNA2(A)128 plasmid (Williams et al. 2010). PCR reaction thus conducted allowed to introduce promoter sequence for SP6 polymerase upstream of the sequence encoding Renilla luciferase. The transcription reaction itself was similar to the short RNA synthesis described above (Test 4). The reaction was conducted for 2 hours in 20 μl in 40° C. and contained the following: 1U SP6 polymerase, 1 U RiboLock RNase Inhibitor (ThermoFisher Scientific), 0.5 mM ATP/CTP/UTP, 0.125 mM GTP, 1.25 mM dinucleotide cap analog and […] of a template. Following 2 hours incubation, 1U DNase I (Ambion) was added and incubation was continued for 30 min in 37° C., after that EDTA was added to 25 mM final concentration. Obtained mRNAs were purified using NucleoSpin RNA Clean-up XS (Macherey-Nagel). Quality of the synthetized RNA was checked on a denaturing 15% polyacrylamide gel. The RNA concentrations were determined spectrophotometrically.
An in vitro translation reaction was performed in rabbit reticulocyte lysate (RRL, Promega) in conditions determined for cap-dependent translation (Rydzik et al., 2009). A typical reaction mixture (10 μl) contained: 40% RRL lysate, 0.01 mM mixture of amino acids (Promega), 1.2 mM MgCl2, 170 mM potassium acetate and a Renilla luciferase encoding mRNA with an appropriate cap analog at the 5′ end, the mixture being incubated in 37° C. for 1 hour. Four different concentrations of mRNAs: 0.1 ng/μl, 0.25 ng/μl, 0.5 ng/μl, 0.75 ng/μl were used in the experiment. Activity of synthesized luciferase was measured using Dual-Luciferase Reporter Assay System (Promega) in a microplate reader Synergy H1 (BioTek). Obtained results were analyzed in Origin (Gambit) software, and theoretical curve was fitted to experimental data, wherein the slope of obtained curve represents translation efficiency. Representative data were presented on FIG. 10, whereas average translation efficiency obtained for biological triplicates is presented in Table 6.

mice with SMA = conditions: reported by Van Meerbeke, Gibbs et al.; cited from earlier work
[3] = biological target: T2, human DcpS enzyme (hDcpS) (Homo sapiens, UniProt Q96C86); test: Susceptibility of cap analogs to degradation by DcpS enzyme (RP-HPLC); assay type: biochemical; conditions: cap analog 20 μM, hDcpS 100 nM, RP-HPLC
T2 construct: made in house
T2 sequence (Q96C86 1-337): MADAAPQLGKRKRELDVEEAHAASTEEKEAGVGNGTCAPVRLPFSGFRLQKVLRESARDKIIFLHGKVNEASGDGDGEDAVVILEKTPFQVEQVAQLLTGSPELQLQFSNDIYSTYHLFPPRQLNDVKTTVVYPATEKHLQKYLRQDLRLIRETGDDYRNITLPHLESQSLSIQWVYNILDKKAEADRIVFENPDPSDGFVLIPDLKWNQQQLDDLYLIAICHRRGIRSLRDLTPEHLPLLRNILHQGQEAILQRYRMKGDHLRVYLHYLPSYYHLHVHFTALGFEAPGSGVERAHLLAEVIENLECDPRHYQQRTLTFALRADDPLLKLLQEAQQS
Protocol: Test 1. The Susceptibility Study of Analogs to Degradation by DcpS Enzyme.
The aim of the test was to check if new 5′-thiophosphate cap analogs are hydrolyzed by human DcpS enzyme (hDcpS). Recombinant human protein encoding DcpS enzyme was expressed as described previously (Kowalska, Lewdorowicz et al. 2008). The susceptibility of new analogs to hDcpS hydrolysis is tested in 50 mM Tris-HCl buffer containing 200 mM KCl and 0.5 mM EDTA. Reaction mixture includes the tested cap analog (20 μM) and hDcpS enzyme (100 nM) in 400 μl of buffer. At the appropriate intervals 100 μl sample is collected from the reaction mixture. Sample is incubated at 98° C. for 2.5 min, and then cooled to 0° C. and analyzed on RP-HPLC under conditions described in general informations. In tests also commercially available inhibitor of DcpS was tested, the compound RG3039 (no. 000) (https://www.mda.org/quest/fda-approves-phase-1-clinical-trial-rg3039-sma), GppSG (no. 19), GpppSG (no. 20), as well m^7GpppG (no. 0) and m^7Gpp (no. 00) as controls. Exemplary results obtained are shown on FIG. 5 and Table 5.

Structure (SMILES)	Dcp1/2 susceptibility [1]	relative translation efficiency [2]	motor function in mice with SMA (mice with SMA)	DcpS susceptibility [3]
Nc1nc2c(ncn2[C@@H]2O[C@H](COP(=O)(O)OP(=O)(O)OP(=O)(O)OC[C@H]3O[C@@H](n4cnc5c(=O)[nH]c(N)nc54)[C@H](O)[C@@H]3O)[C@@H](O)[C@H]2O)c(=O)[nH]1 [GpppG]	0	0.05 ± 0.01	–	–
Nc1nc(N)c2c(OCC3CCN(Cc4c(Cl)cccc4Cl)CC3)cccc2n1 [No. 000]	–	–	improves motor function	–
Cn1c[n+]([C@@H]2O[C@H](COP(=O)(O)OP(=O)([O-])OP(=O)(O)OC[C@H]3O[C@@H](n4cnc5c(=O)[nH]c(N)nc54)[C@H](O)[C@@H]3O)[C@@H](O)[C@H]2O)c2nc(N)[nH]c(=O)c21 [No. 0]	0.69	1.00	–	hydrolyzable
COC1C(O)[C@@H](CSP(=O)([O-])OP(=O)(O)OP(=O)(O)OC[C@H]2O[C@@H](n3cnc4c(=O)[nH]c(N)nc43)C(O)C2O)O[C@H]1n1c[n+](C)c2c(O)nc(N)nc21 (some centres unmarked) [No. 26, P1-(2′-O-methyl-7-methyl-5′-deoxy-5′-thioguanosin-5′-yl)-P3-guanosin-5′-yl triphosphate]	0.07	1.73 ± 0.24	–	–
COC1C(O)[C@@H](COP(=O)(O)OP(=O)(O)OP(=O)([O-])SC[C@H]2O[C@@H](n3cnc4c(=O)[nH]c(N)nc43)C(O)C2O)O[C@H]1n1c[n+](C)c2c(O)nc(N)nc21 (some centres unmarked) [No. 38, P1-(2′-O-methyl-7-methyl-guanosin-5′-yl)-P3-(5′-deoxy-5′-thioguanosin-5′-yl) triphosphate]	0.52	2.23 ± 0.31	–	–
CO[C@@H]1[C@H](O)[C@@H](COP(=O)(O)OP(=O)([O-])OP(=O)(O)OC[C@H]2O[C@@H](n3cnc4c(=O)[nH]c(N)nc43)[C@H](O)[C@@H]2O)O[C@H]1n1c[n+](C)c2c(O)nc(N)nc21 [m2^7,2′-oGpppG]	0.52	1.56 ± 0.14	–	–
COC1C(O)C(COP(=O)(O)OP(=O)(S)OP(=O)(O)OCC2OC(n3cnc4c(=O)[nH]c(N)nc43)C(O)C2O)OC1n1c[n+](C)c2c(=O)[nH]c(N)nc21 (centres unmarked) [m2^7,2′-oGppspG D2]	0.43	3.45 ± 0.42	–	–

From patent publication US11066436B2, “5′-phosphorothiolate mRNA 5′-end (cap) analogs, mRNA comprising the same, method of obtaining and uses thereof” (Uniwersytet Warszawski, priority 2016, dated 2021)
